The subject of test [1] is OTC. Briefly: OTC expression modulated by compounds, OTC/GeoMean of housekeeping genes, DMSO = 1 (Table 3A). The format is cell-based, human. Particulars: 10 uM final concentration.
Test [2] relates to OTC. The test is described as follows: HSP90 or HSP70 inhibitors in primary human hepatocytes, OTC mRNA. It is filed as cell-based. Particulars: hepatocytes from Donor B, normalized to B2M. How it is done:
(§1) Additional small molecules that inhibit HSP90 or HSP70 were tested in primary human hepatocytes as described in Example 2. HSP90 or HSP70 inhibitors were tested in triplicate at 0.3 μM and 3 μM. The results are shown as the fold change (mRNA FC) in the mRNA levels of OTC and CPS1 genes after treatment compared to an untreated control (DMSO) and the standard deviation (SD). In addition, a dose titration experiment was performed with selected HSP90 inhibitors. Hepatocytes were incubated with increasing concentrations of HSP90 inhibitors and the changes in OTC and CPS1 expression quantified as previously described.
(§2) HSP90 and HSP70 inhibitors were compared to confirm the role of HSP90 in modulating OTC and CPS1 expression. Hepatocytes from Donor B were incubated with various HSP90 inhibitors or an HSP70 inhibitor, Pifithrin-μ, and then harvested for mRNA quantification. OTC and CPS1 mRNA levels were normalized to B2M.

In test [3] the test system is OTC. The test is described as follows: HSP90 inhibitor dose titration in hepatocytes of donors A and B, OTC mRNA normalized to B2M. It is filed as cell-based, human. Particulars: 18 hours. As to the method:
as §1
(§3) Hepatocytes from two different donors (A and B) were incubated with the various concentrations of HSP90 inhibitors for 18 hours and harvested for mRNA analysis. OTC and CPS1 mRNA were normalized to house keeping gene B2M gene expression.

The test system of the next test is SLC25A13. The test is described as follows: RNA-seq of compound-treated primary human hepatocytes, SLC25A13 expression. It is filed as cell-based. Particulars: primary human hepatocytes, triplicate (Table 23, FIG. 15).
A further test has as its system ASS1. The test is described as follows: RNA-seq of compound-treated primary human hepatocytes, ASS1 expression. The format is cell-based.
In a further test the test system is ARG1. Briefly: RNA-seq of compound-treated primary human hepatocytes, ARG1 expression. The format is cell-based.
For another test, the system named is SLC25A15. Briefly: RNA-seq of compound-treated primary human hepatocytes, SLC25A15 expression. It is filed as cell-based.
Test [4] concerns CPS1. Briefly: HSP90 inhibitor dose titration in hepatocytes of donors A and B, CPS1 mRNA normalized to B2M. It is filed as cell-based, human. Particulars: 18 hours. How it is done:
as §1, §3

For test [5], the system named is CPS1. The test is described as follows: HSP90 or HSP70 inhibitors in primary human hepatocytes, CPS1 mRNA. It is filed as cell-based. Particulars: hepatocytes from Donor B, normalized to B2M. As to the method:
as §1, §2

The next test concerns urea cycle genes. The test is described as follows: RNA-seq of primary human hepatocytes, compounds that modulate multiple urea cycle-related genes. It is filed as cell-based.
Test [6] relates to CPS1. Briefly: RNA-seq of compound-treated primary human hepatocytes, CPS1 expression. It is filed as cell-based.
The subject of a further test is ASL. Briefly: RNA-seq of compound-treated primary human hepatocytes, ASL expression. It is filed as cell-based.
Test [7] deals with OTC. The test is described as follows: JAK inhibitors at 0.3 and 3 μM in primary human hepatocytes, OTC mRNA fold change. Particulars: fold change vs DMSO. It is filed as cell-based. How it is done: (§4) Additional small molecules that inhibit JAK1, JAK2, JAK3, or a combination of the JAK proteins were tested in primary human hepatocytes as described in Example 2. JAK inhibitors were tested in triplicate at 0.3 μM and 3 μM. The results are shown as the fold change (mRNA FC) in the mRNA levels of OTC and CPS1 genes after treatment compared to an untreated control (DMSO) and the standard deviation (SD).

Test [8] has as its system CPS1. Briefly: JAK inhibitors at 0.3 and 3 μM in primary human hepatocytes, CPS1 mRNA fold change. Particulars: fold change vs DMSO. It is filed as cell-based. As to the method: as §4
Another test has as its system NAGS. It is filed as cell-based, human. Particulars: 1 μM, primary human hepatocytes, triplicate (Table 21, FIG. 13).

Values joined by “and” are separate entries in the source; they are usually repeats but may differ in a detail not shown here. Equal values may be shown once. Where a name gives a salt, the structure may show the parent alone. Read-outs that look alike come from different tables or passages of the source.

`N#CC(C#N)=NNc1cccc(Cl)c1` [CCCP]: in the test with OTC [1], the “Max Value (OTC/GeoMean of HKs; DMSO = 1)” value was found to be 4.06.
Regarding `O=C(NCCCNc1nc(Nc2cccc(CN3CCOCC3)c2)ncc1C1CC1)C1CCC1` [MRT67307], in the test with OTC [1], the “Max Value (OTC/GeoMean of HKs; DMSO = 1)” value amounted to 1.68.
Turning to `C=CCNc1c(O)cc2c(O)c1C[C@@H](C)C[C@H](OC)[C@H](O)[C@@H](C)/C=C(\C)[C@H](OC(N)=O)[C@@H](OC)/C=C\C=C(/C)C(=O)N2` [Retaspimycin Hydrochloride], the “OTC Expression mRNA FC” value with OTC [2] (0.3 uM) is 2.98; with OTC [2] (3 uM), 2.53. Further, the results for the “OTC mRNA FC, Donor A” value in the test with OTC [3] (0.01 uM), in the test with OTC [3] (0.03 uM) and in the test on OTC [3] (0.1 uM) were 1.40, 5.91 and 9.07, respectively. The results for the “OTC mRNA FC, Donor B” value in the test on OTC [3] (0.01 uM), in the test with OTC [3] (0.03 uM) and in the test with OTC [3] (0.1 uM) were 1.31, 1.78 and 5.18, respectively. Further, the “Relative SLC25A13 level vs Untreated (±Standard Deviation)” value with SLC25A13 (0.3 μM) was determined as 1.35 ± 0.27; with SLC25A13 (1 μM), 1.31 ± 0.08; in the test on SLC25A13 (3 μM) it was 1.54 ± 0.17; in the test on SLC25A13 (10 μM), 1.45 ± 0.01. In the test on ASS1, the “Relative ASS1 level vs Untreated (±Standard Deviation)” value is on record as 1.38 ± 0.13. For the same compound, in the test on ARG1, the “Relative ARGI level vs Untreated (±Standard Deviation)” value was 1.31 ± 0.12. The “Relative SLC25A15 level vs Untreated (±Standard Deviation)” value in the test with SLC25A15 (Hydrochloride) is 1.35 ± 0.27 and 1.31 ± 0.08 and 1.54 ± 0.17 and 1.45 ± 0.01 and 1.60 ± 0.25 and 1.67 ± 0.17 and 1.93 ± 0.13 and 1.77 ± 0.11. Moreover, the “CPS1 mRNA FC, Donor A” value with CPS1 [4] (0.01 uM) worked out at 1.54; in the test on CPS1 [4] (0.03 uM) it was 3.17; in the test on CPS1 [4] (0.1 uM), 3.76. For the same compound, the “CPS1 mRNA FC, Donor B” value in the test on CPS1 [4] (0.01 uM) was 1.29; in the test on CPS1 [4] (0.03 uM), 1.67; in the test on CPS1 [4] (0.1 uM), 2.57. Besides, the “CPS1 Expression mRNA FC” value in the test on CPS1 [5] (0.3 uM) is on record as 1.23; in the test on CPS1 [5] (3 uM), 2.24.
As for `CNC[C@H](O)c1ccc(O)c(O)c1` [Epinephrine], in the test on urea cycle genes, the “Up-regulated Genes” value is listed as “CPS1, ASS1, ASL, ARG1, SLC25A15” and the “number of urea cycle genes whose expression was significantly up-regulated” value is “five”. Moreover, in the test on ASS1, the “Fold change (Log 2) vs untreated, ASS1 expression” value was found to be 1.08 Log 2. Also, in the test with ARG1, the “Fold change (Log 2) vs untreated, ARG1 expression” value turned out to be 2.28 Log 2. Besides, in the test with CPS1 [6], the “CPS1 expression, Fold change (Log 2) vs untreated” value is 4.85 Log 2. Also, the “ASL expression, Fold change (Log 2) vs untreated” value with ASL turned out to be 0.6 Log 2. In addition, in the test on SLC25A15, the “Fold change (Log 2) vs untreated, SLC25A15 expression” value is 1.14 Log 2.
`Cc1cc(Nc2nc(N[C@@H](C)c3ncc(F)cn3)ncc2Cl)[nH]n1` [AZD1480]: the “Max Value (OTC/GeoMean of HKs; DMSO = 1)” value in the test on OTC [1] stood at 1.46. Further, the “OTC mRNA FC” value worked out at 1.63 in the test on OTC [7] (0.3 uM) and 2.3 with OTC [7] (3 uM). Further, the “CPS1 mRNA FC” value with CPS1 [8] (0.3 uM) was 1.1; in the test on CPS1 [8] (3 uM) it was 1.77.
With `CCNC(=O)c1noc(-c2cc(C(C)C)c(O)cc2O)c1-c1ccc(CN2CCOCC2)cc1` [Luminespib], the “OTC Expression mRNA FC” value came out at 0.81 in the test with OTC [2] (0.3 uM) and 3.07 in the test with OTC [2] (3 uM). In the test on SLC25A13 (10 μM), the “Relative SLC25A13 level vs Untreated (±Standard Deviation)” value was 1.55 ± 0.02. The “Relative ARGI level vs Untreated (±Standard Deviation)” value with ARG1 (10 μM, primary human hepatocytes, triplicate (Table 17, FIG. 9)) is 1.34 ± 0.07. The “Relative SLC25A15 level vs Untreated (±Standard Deviation)” value is 1.32 ± 0.24 in the test on SLC25A15 (3 μM, primary human hepatocytes, triplicate (Table 24, FIG. 16A-B)); 1.55 ± 0.02 and 1.82 ± 0.08 in the test on SLC25A15 (10 μM, primary human hepatocytes, triplicate (Table 24, FIG. 16A-B)). Moreover, the “CPS1 Expression mRNA FC” value stood at 0.86 in the test with CPS1 [5] (0.3 uM) and 1.39 with CPS1 [5] (3 uM). Also, the “Relative NAGS level vs Untreated (±Standard Deviation)” value in the test with NAGS was found to be 1.32 ± 0.30.
On to `CNC(=O)c1ccc(C)c(-n2c(C)cc(OCc3ccc(F)cc3F)c(Br)c2=O)c1` [PH-797804], for which the “Max Value (OTC/GeoMean of HKs; DMSO = 1)” value in the test with OTC [1] was 1.53.

Source of the values: patent publication US11266655B2, “Methods and compositions for treating urea cycle disorders” (Camp4 Therapeutics Corporation, priority 2019, dated 2022).
